Test results from patent US20220193060A1, “Inhibition of IL-1 Induced Inflammation” (THIOLAB, LLC., priority 2019, published 2022).
Entries after “also recorded” stand apart in the source; their conditions may differ.

What was measured:
THP-1 cells = test: Cell viability of CPDS-treated THP-1 cells; assay type: cell-based, human
Protocol: (§1) Methodology: The study included replicated tests of IL-1β levels with and without CPDS, as well as reference testing of untreated cells and cells treated with lactoferrin and clobetasol. A third test was conducted of IL-1 receptor […] (IL-1RA) receptor, to assist in distinguishing whether reductions in IL-1β levels were associated with secretion or receptor blocking (via the receptor antagonist). Cell viability studies were conducted for both sets of tests. 1. THP-1 cells were grown in (RPMI+10% FBS, 10 mM HEPES, 1 mM Sodium Pyruvate, and 0.05 mM 2-Mecaptpethanol) to P8. 2. Cells were plated at 30,000 cells per well in 120 ul with Media+20 ng/ml PMA+2× Genta. 3. […] Cells were treated according to plan below. 5. Cells were incubated for three more days at 37° C. and 5% CO2. 6. Cell supernatant were collected and ELISA was measured for IL-1RA, IL-1α, and IL-1β. 7. Plate was read at 490 nm until O.D reached 1.5.

[1] = system: non-malignant intraductal breast hyperplasia; test: Case: oral CPDS for breast hyperplasia; assay type: in vivo, human
Protocol: An individual, diagnosed with non-malignant intraductal breast hyperplasia on the upper left quadrant of the left breast was treated with CPDS. […] CPDS was administered in 99.7% pure form in capsules without excipients.

poison oak = test: Case: topical CPDS for poison oak exposure; assay type: in vivo, human
Protocol: An individual was exposed to poison oak on their left arm through physical contact. They developed a rash and other symptoms of inflammation such as redness, itching, burning sensation, and swelling. The individual was treated using topical application a cream containing 1% CPDS by weight. The cream was applied every two hours on the first day, and thereafter two to three times a day. The cream contained water, mineral oil, stearic acid, triethanolamine, propylene glycol, glyceryl stearate, stearyl alcohol, dirnethicone, isopropyl palmitate, cetyl alcohol, lactic acid, retinyl acetate, tocopheryl acetate, hydrolyzed collagen, fragrance, methylparaben, and O&C red #33. The individual was treated alternatively with 1% CPDS by weight in an ointment containing white petroleum and mineral oil.

[2] = cited from earlier work
IP-10 = test: LPS-stimulated RAW 264.7 cells, IP-10 secretion; assay type: cell-based; details: murine RAW 264.7 cells, pre-treatment prior to LPS
Protocol: An in vitro model of inflammation mediated by macrophages is used. […] A murine macrophage cell line RAW264.7 (CCRL-2278) was also used. Macrophages are treated with CPDS. […] Then the effect of CPDS on inflammation is assessed by comparing the levels of anti-inflammatory mediators IL-6 and IL-10. IL-10 and IL-6 were determined by ELISA. The level of IL-6 and IL-10 were compared to the level prior to CPDS treatment. […] In addition we measured decrease in the secretion of IP-10.

arthritic psoriasis = test: Case: oral CPDS for arthritic psoriasis; assay type: in vivo, human; details: oral 140 mg/day, 4 days a week
Protocol: The patient was a person. Their disease began 1 year previously. Their main complaint was pain in their right wrist, which prevented them from using their right hand and arm; they had bothersome itching cutaneous psoriatic lesions. Treatment at the time consisted of cortisone (5 mg/day) and non-steroidal anti-inflammatory drugs and weekly administrations of methotrexate (MTX) 5 mg/week. The side effects of MTX were severe stomach, throat, and mouth lesions, nightmares, visual hallucinations, and dizziness. The patient began taking oral CPDS 90 days previous (140 mg/day), 4 days a week. Within a few days, the side effects of MTX became much milder, and their immune defenses increased. Instead of catching a cold, as they had often, that lasted for weeks and needed antibiotics, their colds were much more brief normal duration.

colonic polyps = test: Case: oral CPDS for colonic polyps; assay type: in vivo, human; details: person; oral 140 mg per day; 1, 3, 9, and 10 months
Protocol: An individual was diagnosed with colon neoplasia. About one month after the initial diagnosis, the individual underwent semi colotomy at which time about 45 cm of their colon was removed. […] The polyps were cauterized at that time. About one month later, the individual began treatment with CPDS which was administered orally at a dose of 140 mg per day.

IL-1RA = test: human IL-1RA (receptor antagonist) ELISA, THP-1 supernatant; assay type: cell-based
Protocol: as §1, with “1.5. In order to determine whether the reduction in IL-1β was from blocking of secretion or from blocking of the receptor, a human IL-1RA (receptor antagonist) ELISA test was performed.” for “1.5.”

[3] = IV doses up to 300 mg/kg (1 mM)

In the case of `O=C(O)c1ccc(SSc2ccc(C(=O)O)cn2)nc1` [CPDS, 6,6′-dithiodinicotinic acid], the cell viability (THP-1 cells; 200 μM) is reported as “slight decline in viability”, the cell viability (THP-1 cells; all CPDS concentrations except 200 μM, both tests) is reported as no less than 100% and the “pain in breast and axilla” value ([1]; after commencing oral 140 mg per day) is reported as “subsided within two days”. For the same compound, the “pain following discontinuation of CPDS” value ([1]; after discontinuation) was “returned within two to three days”, the side effect ([1]; oral 140 mg per day) was “No side effect” and the “growth of breast hyperplasia (mammograms)” value ([1]; person, oral 140 mg per day, forty-eight months) was “stopped growing”. For the same compound, the itching and burning (poison oak; person, topical cream or ointment with 1% CPDS by weight) was “dissipated immediately”, the recurrence of symptoms (poison oak; topical 1% CPDS by weight) was “did not recur” and the redness and swelling (poison oak; topical 1% CPDS by weight) was “disappeared in about one week”. For the same compound, the “spread of rash to other parts of the body” value (poison oak; topical 1% CPDS by weight) was “did not spread”, the “kidney or liver weight” value [2, 3] was “slight increase” and the lethality [2, 3] was “not fatal”. For the same compound, the tolerability ([2]; doses up to 300 mg/kg (1 mM) intravenous) was “tolerated”, the “secretion of IP-10” value (IP-10) was “decrease” and the immune defenses (arthritic psoriasis) was “increased”. The “function of right hand and wrist” value (arthritic psoriasis; 90 days) was “regained function”, the “side effects of MTX” value (arthritic psoriasis; person, within a few days) was “much milder” and the “growth of polyps at check-up visits” value (colonic polyps) was “no new growth”. For the same compound, the “reduction of IL-1RA” value (IL-1RA; 100 μM) was 60%, the “reduction of IL-1RA” value (IL-1RA; 200 μM) was 76% and the “effect on IL-1RA production” value (IL-1RA; all concentrations lower than 100 μM) was “did not affect; also recorded: no effect”.
